The target in data set [1] is T1, hAMY3 receptor (Homo sapiens, UniProt O60896+P30988).
T1 sequence (P30988 25-474): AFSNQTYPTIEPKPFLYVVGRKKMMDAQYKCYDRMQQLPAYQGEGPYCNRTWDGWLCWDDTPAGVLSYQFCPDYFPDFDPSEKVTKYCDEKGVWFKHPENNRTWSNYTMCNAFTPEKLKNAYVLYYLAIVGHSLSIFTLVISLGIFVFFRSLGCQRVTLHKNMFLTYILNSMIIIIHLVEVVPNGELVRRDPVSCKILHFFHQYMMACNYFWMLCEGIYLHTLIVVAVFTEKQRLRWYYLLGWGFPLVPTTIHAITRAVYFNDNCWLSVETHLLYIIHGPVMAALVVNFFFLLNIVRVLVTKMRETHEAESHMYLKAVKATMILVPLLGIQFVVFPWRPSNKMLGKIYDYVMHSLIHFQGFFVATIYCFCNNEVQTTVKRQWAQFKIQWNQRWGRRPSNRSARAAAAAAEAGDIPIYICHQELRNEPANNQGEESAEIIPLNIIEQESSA
T1 sequence (O60896 24-148 partner): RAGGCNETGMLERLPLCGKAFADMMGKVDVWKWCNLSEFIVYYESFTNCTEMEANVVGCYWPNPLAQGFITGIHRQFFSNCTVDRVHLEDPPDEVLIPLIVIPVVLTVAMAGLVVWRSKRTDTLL
The data set is described as follows: cAMP assay for in vitro receptor activation, hAMY3-R. It counts as cell-based. The conditions noted are these: cAMP assay, hAMY3 receptor; read-out: hAMY3R EC50. The essentials: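 Monoclonal cell line stably overexpressing hAMY3 receptor, plated in DPBS with 0.05% casein and 0.5 mM IBMX, was stimulated with graded compound doses for 30 min at room temperature. cAMP accumulation was read by time-resolved FRET one hour after adding detection reagents.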
(Changes in cAMP serve as a functional read-out for many G protein-coupled receptors.)

Data set [2] concerns the target hAM1 receptor (Homo sapiens, UniProt O60895+Q16602). The data set is described as follows: cAMP assay for in vitro receptor activation, hAM1-R. It counts as cell-based. The conditions noted are these: cAMP assay, hAM1 receptor; read-out: hAM1R EC50. The procedure, abridged: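 cAMP accumulation was measured in a monoclonal cell line stably overexpressing the hAM1 receptor. Frozen aliquots were thawed and plated at 8000 cells/well in DPBS containing 0.05% casein and 0.5 mM IBMX.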

The nature of data set [3]: Physical stability of peptide analogues (Thioflavin T fibrillation). It counts as physicochemical. The conditions noted are these: maximum ThT signal normalized between hAMY maximum and buffer background; 40° C., shaking, four days; pH 7 per table title. The essentials:
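Peptides in 50 mM sodium acetate pH 4 or 50 mM sodium phosphate pH 7 were preincubated 1 h, mixed with 4 μM ThT, held at 40° C with 700 rpm shaking before each read. Fluorescence (ex 450/em 480 nm) every 10 min for four days; LOESS-smoothed maximum signal normalized in percent between hAMY and buffer.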

Bridge positions count the residues as written; N and C are the ends. Square brackets hold non-standard residues; d marks the D form. Peptide text beside a SMILES is read from it. Hyp = O=C(O)[C@@H]1C[C@@H](O)CN1

Chain of hAM1 receptor (Q16602 23-461): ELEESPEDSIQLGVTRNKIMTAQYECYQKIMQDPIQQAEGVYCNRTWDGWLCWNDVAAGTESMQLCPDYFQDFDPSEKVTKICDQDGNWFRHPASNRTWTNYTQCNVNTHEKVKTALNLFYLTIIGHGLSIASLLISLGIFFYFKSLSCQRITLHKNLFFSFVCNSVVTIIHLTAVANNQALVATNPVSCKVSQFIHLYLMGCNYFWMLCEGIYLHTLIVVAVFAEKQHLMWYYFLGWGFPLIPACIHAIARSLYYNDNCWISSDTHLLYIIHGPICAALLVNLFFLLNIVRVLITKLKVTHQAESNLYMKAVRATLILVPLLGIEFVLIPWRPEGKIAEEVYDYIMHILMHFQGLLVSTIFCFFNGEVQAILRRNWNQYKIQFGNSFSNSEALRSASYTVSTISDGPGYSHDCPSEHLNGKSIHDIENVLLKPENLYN
Chain of hAM1 receptor (O60895 43-175 partner): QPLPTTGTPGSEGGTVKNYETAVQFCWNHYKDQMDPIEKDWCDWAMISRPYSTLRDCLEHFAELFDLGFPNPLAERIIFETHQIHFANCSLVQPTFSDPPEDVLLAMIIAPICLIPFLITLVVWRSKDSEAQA

In general, EC50 refers to the concentration that produces a half-maximal response. As to `CC[C@H](C)[C@H](NC(=O)[C@H](CCC(N)=O)NC(=O)[C@H](Cc1c[nH]cn1)NC(=O)[C@H](C)NC(=O)[C@H](CC(C)C)NC(=O)[C@H](CCCNC(=N)N)NC(=O)[C@H](CCC(N)=O)NC(=O)[C@@H](NC(=O)[C@@H](NC(=O)[C@@H]1CSSC[C@H](NC(=O)CN)C(=O)N[C@@H](CCCNC(=N)N)C(=O)N[C@@H](Cc2c[nH]c3ccccc23)C(=O)NCC(=O)N[C@@H]([C@@H](C)O)C(=O)N1)[C@@H](C)O)C(C)C)C(=O)N[C@@H](Cc1ccc(O)cc1)C(=O)N[C@@H](CCC(N)=O)C(=O)N[C@@H](Cc1ccccc1)C(=O)N[C@H](C(=O)N[C@@H](CC(=O)O)C(=O)N[C@@H](CCCCN)C(=O)N[C@@H](CC(=O)O)C(=O)N[C@@H](CCCCN)C(=O)N[C@@H](CC(=O)O)C(=O)N[C@@H](CC(N)=O)C(=O)N[C@H](C(=O)N[C@@H](C)C(=O)N1CCC[C@H]1C(=O)N[C@@H](CO)C(=O)N[C@@H](CO)C(=O)N[C@@H](CCCCN)C(=O)N[C@H](C(=O)N[C@@H](CO)C(=O)N1CCC[C@H]1C(=O)N[C@@H](CCC(N)=O)C(=O)N[C@H](C(=O)N1C[C@H](O)C[C@H]1C(N)=O)[C@@H](C)O)[C@@H](C)CC)C(C)C)[C@@H](C)O` [compound 202] (H-GCRWGTCTVQRLAHQIYQFTDKDKDNVAPSSKISPQT[Hyp]-NH2; disulfide 2-7), the EC50 in data set [1] was 0.126 nM; in data set [2], over 5000 nM. The “Max ThT signal (%)” value in data set [3] turned out to be 12.600%.
Taken in the same sequence, the figures for `CC[C@H](C)[C@H](NC(=O)[C@H](CCC(N)=O)NC(=O)[C@H](Cc1c[nH]cn1)NC(=O)[C@H](C)NC(=O)[C@H](CC(C)C)NC(=O)[C@H](CCCNC(=N)N)NC(=O)[C@H](CCC(N)=O)NC(=O)[C@@H](NC(=O)[C@@H](NC(=O)[C@@H]1CSSC[C@H](NC(=O)CN)C(=O)N[C@@H](CCCNC(=N)N)C(=O)N[C@@H]([C@@H](C)O)C(=O)NCC(=O)N[C@@H]([C@@H](C)O)C(=O)N1)[C@@H](C)O)C(C)C)C(=O)N[C@@H](Cc1ccc(O)cc1)C(=O)N[C@@H](CCC(N)=O)C(=O)N[C@@H](Cc1ccccc1)C(=O)N[C@H](C(=O)N[C@@H](CC(=O)O)C(=O)N[C@@H](CCCCN)C(=O)N[C@@H](Cc1ccccc1)C(=O)N[C@@H](CCCCN)C(=O)N[C@@H](CC(=O)O)C(=O)N[C@@H](CC(N)=O)C(=O)N[C@H](C(=O)N[C@@H](C)C(=O)N1CCC[C@H]1C(=O)N[C@@H](CCCNC(=N)N)C(=O)N[C@@H](CO)C(=O)N[C@@H](CCCCN)C(=O)N[C@H](C(=O)N[C@@H](CO)C(=O)N1CCC[C@H]1C(=O)N[C@@H](CCC(N)=O)C(=O)N[C@@H](CCCCN)C(=O)N1C[C@H](O)C[C@H]1C(N)=O)[C@@H](C)CC)C(C)C)[C@@H](C)O` [compound 206] (H-GCRTGTCTVQRLAHQIYQFTDKFKDNVAPRSKISPQK[Hyp]-NH2; disulfide 2-7; N-terminus assumed) were 0.13 nM, over 5000 nM and 1.500%.
As to `CC[C@H](C)[C@H](NC(=O)[C@H](CCC(N)=O)NC(=O)[C@H](Cc1c[nH]cn1)NC(=O)[C@H](C)NC(=O)[C@H](CC(C)C)NC(=O)[C@H](CCCNC(=N)N)NC(=O)[C@H](CCC(N)=O)NC(=O)[C@@H](NC(=O)[C@@H](NC(=O)[C@@H]1CSSC[C@H](NC(=O)CN)C(=O)N[C@@H](CCCNC(=N)N)C(=O)N[C@@H](Cc2ccccc2)C(=O)NCC(=O)N[C@@H]([C@@H](C)O)C(=O)N1)[C@@H](C)O)C(C)C)C(=O)N[C@@H](Cc1ccc(O)cc1)C(=O)N[C@@H](CCC(N)=O)C(=O)N[C@@H](Cc1ccccc1)C(=O)N[C@H](C(=O)N[C@@H](CC(=O)O)C(=O)N[C@@H](CCCCN)C(=O)N[C@@H](Cc1ccccc1)C(=O)N[C@@H](CCCCN)C(=O)N[C@@H](CC(=O)O)C(=O)N[C@@H](CC(N)=O)C(=O)N[C@H](C(=O)N[C@@H](C)C(=O)N1CCC[C@H]1C(=O)N[C@@H](CCCNC(=N)N)C(=O)N[C@@H](CO)C(=O)N[C@@H](CCCCN)C(=O)N[C@H](C(=O)N[C@@H](CO)C(=O)N1CCC[C@H]1C(=O)N[C@@H](CCC(N)=O)C(=O)N[C@H](C(=O)N1C[C@H](O)C[C@H]1C(N)=O)[C@@H](C)O)[C@@H](C)CC)C(C)C)[C@@H](C)O` [compound 212] (H-GCRFGTCTVQRLAHQIYQFTDKFKDNVAPRSKISPQT[Hyp]-NH2; disulfide 2-7; N-terminus assumed), the concentration giving a half-maximal response (EC50) is 0.153 nM in data set [1] and over 5000 nM in data set [2]. Besides, in data set [3], the “Max ThT signal (%)” value turned out to be 1.900%.
Taken in the same sequence, the figures for `CC[C@H](C)[C@H](NC(=O)[C@H](CCC(N)=O)NC(=O)[C@H](Cc1c[nH]cn1)NC(=O)[C@H](C)NC(=O)[C@H](CC(C)C)NC(=O)[C@H](CCCNC(=N)N)NC(=O)[C@H](CCC(N)=O)NC(=O)[C@@H](NC(=O)[C@@H](NC(=O)[C@@H]1CSSC[C@H](NC(=O)CN)C(=O)N[C@@H](CCCNC(=N)N)C(=O)N[C@@H]([C@@H](C)O)C(=O)NCC(=O)N[C@@H]([C@@H](C)O)C(=O)N1)[C@@H](C)O)C(C)C)C(=O)N[C@@H](Cc1c[nH]c2ccccc12)C(=O)N[C@@H](CCC(N)=O)C(=O)N[C@@H](Cc1ccccc1)C(=O)N[C@H](C(=O)N[C@@H](CC(=O)O)C(=O)N[C@@H](CCCCN)C(=O)N[C@@H](Cc1ccccc1)C(=O)N[C@@H](CCCCN)C(=O)N[C@@H](CC(=O)O)C(=O)N[C@@H](CC(N)=O)C(=O)N[C@H](C(=O)N[C@@H](C)C(=O)N1CCC[C@H]1C(=O)N[C@@H](CCCNC(=N)N)C(=O)N[C@@H](CO)C(=O)N[C@@H](CCCCN)C(=O)N[C@H](C(=O)N[C@@H](CO)C(=O)N1CCC[C@H]1C(=O)N[C@@H](CCC(N)=O)C(=O)N[C@H](C(=O)N1C[C@H](O)C[C@H]1C(N)=O)[C@@H](C)O)[C@@H](C)CC)C(C)C)[C@@H](C)O` [compound 213] (H-GCRTGTCTVQRLAHQIWQFTDKFKDNVAPRSKISPQT[Hyp]-NH2; disulfide 2-7) were 0.153 nM, over 5000 nM and 6.500%.
Taken in the same sequence, the figures for `CC[C@H](C)[C@H](NC(=O)[C@H](CCC(N)=O)NC(=O)[C@H](Cc1c[nH]cn1)NC(=O)[C@H](C)NC(=O)[C@H](CC(C)C)NC(=O)[C@H](CCCNC(=N)N)NC(=O)[C@H](CCC(N)=O)NC(=O)[C@@H](NC(=O)[C@@H](NC(=O)[C@@H]1CSSC[C@H](NC(=O)CN)C(=O)N[C@@H](CCCNC(=N)N)C(=O)N[C@@H](CCSC)C(=O)NCC(=O)N[C@@H]([C@@H](C)O)C(=O)N1)[C@@H](C)O)C(C)C)C(=O)N[C@@H](Cc1ccc(O)cc1)C(=O)N[C@@H](CCC(N)=O)C(=O)N[C@@H](Cc1ccccc1)C(=O)N[C@H](C(=O)N[C@@H](CC(=O)O)C(=O)N[C@@H](CCCCN)C(=O)N[C@@H](CC(=O)O)C(=O)N[C@@H](CCCCN)C(=O)N[C@@H](CC(=O)O)C(=O)N[C@@H](CC(N)=O)C(=O)N[C@H](C(=O)N[C@@H](C)C(=O)N1CCC[C@H]1C(=O)N[C@@H](CO)C(=O)N[C@@H](CO)C(=O)N[C@@H](CCCCN)C(=O)N[C@H](C(=O)N[C@@H](CO)C(=O)N1CCC[C@H]1C(=O)N[C@@H](CCC(N)=O)C(=O)N[C@H](C(=O)N1C[C@H](O)C[C@H]1C(N)=O)[C@@H](C)O)[C@@H](C)CC)C(C)C)[C@@H](C)O` [compound 222] (H-GCRMGTCTVQRLAHQIYQFTDKDKDNVAPSSKISPQT[Hyp]-NH2; disulfide 2-7; N-terminus assumed) were 0.184 nM, over 5000 nM and 11.700%.

For the origin of these results see patent US12139520B2 (priority 2020, dated 2024).
